# Where a SMILES comes first, the peptide text is derived from it.
# Legend:
# RAW macrophages = test: ATP induced macrophage cell death (LDH release); format: cell-based, murine; conditions: 20 μg/mL pre-treatment 1 h, then ATP 5 mM 2 h
# Description: FIG. 16 is a graphical representation showing that FhHDM-1 P3 prevents ATP induced cell death in RAW macrophages. RAW macrophages were pretreated with either FhHDM-1 (20 μg/mL) or FhHDM-1 p3 (20 μg/mL) for 1 h, then washed and cultured in the presence of ATP (5 mM) for 2 h. Cell death (% cytotoxicity) was quantified according to the amount of LDH released by the cells into culture media.
# Raw macrophages were pre-treated with either HDM (20 μg/mL) or FhHDM-1 P3 (20 μg/mL) for 1 h, washed and then cultured in the presence of ATP (5 mM) for 2 h. The culture supernatants were collected and assayed for LDH activity with an LDH release kit. The amount of LDH release by cells treated with ATP only was used to represent 100% cytotoxicity.
# [1] = established T1D, early randomized trials; cited from earlier work
# [2] = test system: ATPase activity associated with lysosomal membranes (equivalent to vATPase activity); test: ATPase activity of enriched lysosomal membranes; format: biochemical, murine; conditions: lysosomal membranes from RAW264.7 macrophage lysates
# Description: FIG. 17 is a graphical representation showing that FhHDM-1 P3 inhibits ATPase activity associated with lysosomal membranes in a concentration-dependent manner. A cellular fraction enriched for lysosomes was prepared by sequential centrifugation of RAW264.7 macrophage lysates. The lysosomal membranes were recovered and assayed (with or without HDM peptides) for ATPase activity using a commercially available kit.
# FIG. 18 is a diagrammatic representation showing a sequence alignment of various synthetic HDM peptides. The amphipathic helix is shaded in grey as are the mutated residues in peptides nonHP and 2Pro. NonHP is a variant of FhHDM-1 P3 in which the hydrophobic face of the FhHDM-1 amphipathic helix was removed. 2Pro is a variant of FhHDM-1 P3 in which two prolines substitutions were incorporated to disrupt the alpha-helix. Cons_p3 is a consensus peptide corresponding to various FhHDM-1 homologs. All peptides in the alignment were tested for their ability to inhibit the ATPase activity associated with enriched lysosomal membranes (prepared from RAW macrophages). Those with inhibitory activity are shown in bold text.
# A cellular fraction enriched for lysosomes was prepared by sequential centrifugation of RAW264.7 macrophage lysates. The lysosome pellet was extracted with water and the resulting lysosomal membranes were recovered and assayed (with or without HDM peptides) for ATPase activity using a commercially available kit.
# RAW264.7 cells = test: Binding of FITC-conjugated LPS to RAW 264.7 cells (flow cytometry); format: cell-based, murine; conditions: 0.1-10 μg/mL, 20 min at 4° C.
# Description: (§1) FIG. 9 is a graphical representation showing LPS neutralization by FhHDM-1. The ability of FhHDM-1 (Δ), FhHDM-1 p1 (●) or FhHDM-1 p3 (▪) to bind to LPS was investigated by (A) incubating a range of concentrations of proteins (0.02-2 μg/well) in an LPS-coated (100 ng/well) microtitre plate. Bound peptides were detected by ELISA using rabbit anti-FhHDM-1 as a primary antibody. (B) FhHDM-1 or derived peptides (0.1 μg) were incubated in the presence of LPS (0.05-5 μg/well) and bound peptides measured as described above. Binding of peptides to the LPS-immobilized plates was expressed as a percentage of that measured for 2 μg (for panel A) or 0.1 μg (for panel B) of FhHDM-1. Data are the means±SD from three separate experiments. (C) FhHDM-1 and FhHDM-1 p3 but not FhHDM-1 p1 reduced the interaction between LPS and LBP as effectively as LL-37. LPS-coated microtitre plates were incubated with 5 μg/well of LL-37, FhHDM-1 or derived peptides for 1 h prior to the addition of 10% human sera in PBS. Interaction of LBP with LPS was measured by ELISA using an anti-LBP primary antibody and expressed as a percentage of that detected for 10% sera in the absence of added peptides. Data are the mean±SD of three separate experiments. Statistical significance was calculated using the student t-test and represent a comparison to the binding of 10% sera to immobilized LPS. (D) Binding of FITC-conjugated LPS to RAW264.7 cells was inhibited by LL-37, FhHDM-1 and peptides. […] The binding of FITC-LPS was analyzed by flow cytometry. LPS binding was expressed as a percentage of the mean fluorescence obtained for the addition of FITC-LPS to cells in the absence of peptides. […] Two hours later, sera was collected and serum levels of TNF and (F) IL-10 measured by ELISA. (G) Peritoneal macrophages were isolated, cultured unstimulated in media overnight and then levels of TNF and (H) IL-10 in the culture measured by ELISA. […]
# The effect of FhHDM-1 and derived peptides on the binding of FITC-LPS to CD14+ cells was determined by flow cytometry of the murine macrophage cell line RAW264.7. […]
# [3] = test system: interaction of LPS with LPS-binding protein (LBP); test: Assay for the interaction of LPS with LBP (ELISA); parameters: species or system mouse; conditions: 5 μg/well, 1 h before 10% sera; ELISA with anti-LBP
# Description: as §1
# The ability of FhHDM-1 and derived peptides to block the interaction of LPS with LPB was assessed by ELISA using an anti-LBP primary antibody. […]
# [4] = test system: LPS-induced inflammatory response; test: Endotoxin (LPS)-induced inflammation in mice, co-injection; format: in vivo, BALB/c mice
# Description: FIG. 9 is a graphical representation showing LPS neutralization by FhHDM-1. The ability of FhHDM-1 (Δ), FhHDM-1 p1 (●) or FhHDM-1 p3 (▪) to bind to LPS was investigated by (A) incubating a range of concentrations of proteins (0.02-2 μg/well) in an LPS-coated (100 ng/well) microtitre plate. Bound peptides were detected by ELISA using rabbit anti-FhHDM-1 as a primary antibody. (B) FhHDM-1 or derived peptides (0.1 μg) were incubated in the presence of LPS (0.05-5 μg/well) and bound peptides measured as described above. Binding of peptides to the LPS-immobilized plates was expressed as a percentage of that measured for 2 μg (for panel A) or 0.1 μg (for panel B) of FhHDM-1. Data are the means±SD from three separate experiments. (C) FhHDM-1 and FhHDM-1 p3 but not FhHDM-1 p1 reduced the interaction between LPS and LBP as effectively as LL-37. LPS-coated microtitre plates were incubated with 5 μg/well of LL-37, FhHDM-1 or derived peptides for 1 h prior to the addition of 10% human sera in PBS. Interaction of LBP with LPS was measured by ELISA using an anti-LBP primary antibody and expressed as a percentage of that detected for 10% sera in the absence of added peptides. Data are the mean±SD of three separate experiments. Statistical significance was calculated using the student t-test and represent a comparison to the binding of 10% sera to immobilized LPS. (D) Binding of FITC-conjugated LPS to RAW264.7 cells was inhibited by LL-37, FhHDM-1 and peptides. RAW264.7 cells (5×10^5 cells/mL) were incubated with 1 μg/mL of FITC-conjugated LPS in the presence of increasing concentrations (0.1-10 μg/mL) of FhHDM-1, FhHDM-1 p1 and FhHDM-1 p3 and LL-37 in RPMI 1640 containing 10% FBS for 20 min at 4° C. The binding of FITC-LPS was analyzed by flow cytometry. LPS binding was expressed as a percentage of the mean fluorescence obtained for the addition of FITC-LPS to cells in the absence of peptides. Data are the mean±SD of two independent experiments. (E) FhHDM-1 and FhHDM-1 p3 both suppress the inflammatory response induced by LPS in mice. BALB/c mice were intra-peritoneally injected with 1 μg of LPS alone or combined with 1 μg of FhHDM-1, FhHDM-1 p3 or LL-37. Two hours later, sera was collected and serum levels of TNF and (F) IL-10 measured by ELISA. (G) Peritoneal macrophages were isolated, cultured unstimulated in media overnight and then levels of TNF and (H) IL-10 in the culture measured by ELISA. Data are the mean±SD of six mice in each group. Statistical significance represents a comparison to the levels of cytokines secreted by mice given LPS only.
# Human Defense peptides protect against harmful inflammatory responses by preventing activation of macrophages by classical TLR ligands such as LPS (Scott et al. 2002, J. Immunol. 169, 3883-3891). Here, the inventors employed a murine model to examine whether FhHDM-1 and derived peptides can suppress LPS-induced Th1 inflammation. BALB/c mice were injected intra-peritoneally with 1 μg of LPS alone or LPS combined with 1 μg of FhHDM-1, FhHDM-1 p3 or LL-37. Two hours later, sera was collected and serum levels of the pro-inflammatory mediators TNF and IL-10 were measured by ELISA. […] Because macrophages are the main source of pro-inflammatory mediators in this murine model of inflammation, peritoneal macrophages were isolated from treated mice (LPS±FhHDM-1, peptides or LL-37 as described above), cultured unstimulated in media overnight and then levels of TNF and IL-10 in the culture media were measured by ELISA.
# Six week-old female BALB/c mice were purchased from ARC (Perth, Australia) and maintained according to the guidelines of the University of Technology Sydney Animal Care and Ethics committee. For the analysis for endotoxin-induced inflammation, mice were intra-peritoneally injected with 1 μg of E. coli LPS (serotype 111:B4; Sigma) either with or without 1 μg FhHDM-1 or derived peptides. After 2 h mice were sacrificed by cervical dislocation. […]
# [5] = BALB/c mice, 1 μg LPS mixed with 1 μg i.p., 2 h
# [6] = macrophages from treated mice, cultured unstimulated overnight
compound,measurement,setting,value
CC[C@H](C)[C@H](NC(=O)[C@H](CCCCN)NC(=O)[C@H](CCC(=O)O)NC(=O)CNC(=O)[C@H](CC(C)C)NC(=O)[C@H](CC(N)=O)NC(=O)[C@H](CC(=O)O)NC(=O)[C@H](CCCCN)NC(=O)[C@H](C)NC(=O)[C@H](CC(C)C)NC(=O)[C@H](Cc1ccc(O)cc1)NC(=O)[C@H](C)NC(=O)[C@H](CCSC)NC(=O)[C@H](C)N)C(=O)N[C@H](C(=O)N[C@@H](CCC(=O)O)C(=O)N[C@H](C(=O)N[C@H](C(=O)N[C@H](C(=O)N[C@H](C(=O)N[C@@H](CC(C)C)C(=O)N[C@@H](CC(C)C)C(=O)N[C@@H](CC(N)=O)C(=O)N[C@@H](CCCNC(=N)N)C(=O)N[C@@H](CC(C)C)C(=O)N[C@H](C(=O)N[C@@H](CC(=O)O)C(=O)N[C@@H](CCCNC(=N)N)C(=O)N[C@@H](CC(C)C)C(=O)N[C@@H](CCC(=O)O)C(=O)N[C@@H](CCCCN)C(=O)N[C@@H](Cc1ccc(O)cc1)C(=O)N[C@@H](C)C(=O)NCC(=O)O)[C@@H](C)O)[C@@H](C)CC)[C@@H](C)O)[C@@H](C)CC)C(C)C)[C@@H](C)O [FhHDM-1 p3] (H-AMAYLAKDNLGEKITEVITILLNRLTDRLEKYAG-OH),LDH release induced by ATP (cytotoxicity of ATP),RAW macrophages,inhibited LDH release
Cn1cnc([N+](=O)[O-])c1Sc1ncnc2nc[nH]c12 [azathioprine],treated patients becoming independent of insulin therapy,[1],approximately 50%
"HDMp2: SEQ ID NO:122, 27 aa, comprising a shorter amphipathic helix than FhHDM-1 peptide 3 (NLGEKITEVITILLNRLTDRLEKYAGN; FhHDM-1 peptide 2)",ATPase activity associated with lysosomal membranes,[2],inhibitory
LL-37 [reference compound],binding of FITC-LPS to RAW264.7 macrophages,RAW264.7 cells,most strongly inhibited
same,interaction between LPS and LBP,[3],significantly reduced
same,serum levels of IL-10,[4]; [5],significant reduction
same,serum levels of TNF,[4]; [5],significant reduction
same,LPS-induced secretion of IL-10 from peritoneal macrophages,[4]; [6],significantly inhibited
same,TNF secreted from peritoneal macrophages,[4]; [6],did not significantly reduce
